Test results reported in ChEMBL document CHEMBL5154919, “New ZW4864 Derivatives as Small-Molecule Inhibitors for the β-Catenin/BCL9 Protein-Protein Interaction” (ACS Med Chem Lett, 2022).
Activity calls are given as the source filed them. The rule behind the calls is not given here.

Key:
MDA-MB-468 = test: Effect of Wnt/beta-Catenin signaling in human MDA-MB-468 cells transfected with beta-catenin plasmid assessed as inhibition of cell growth rescue measured after 72 hrs by MTS assay; assay type: functional, cell-based
SW480 [1] = test: Effect of Wnt/beta-Catenin signaling pathway in human SW480 cells assessed as decrease in Cyclin D1 level at 20 uM incubated for 24 hrs by Western blot analysis; assay type: functional, cell-based; settings: DDE = dose-dependent effect
[2] = Effect of Wnt/beta-Catenin signaling pathway in human SW480 cells assessed as reduction in HPRT level at 5 uM incubated for 24 hrs by qRT-PCR analysis relative to control; assay type: functional; settings: SW480, 24 h
[3] = Effect of Wnt/beta-Catenin signaling pathway in human SW480 cells assessed as reduction in Axin2 level at 20 uM incubated for 24 hrs by qRT-PCR analysis relative to control; assay type: functional; settings: SW480, 24 h
[4] = Effect of Wnt/beta-Catenin signaling pathway in human SW480 cells assessed as reduction in Axin2 level at 10 uM incubated for 24 hrs by qRT-PCR analysis relative to control; assay type: functional; settings: SW480, 24 h
MCF-10A = test: Antiproliferative activity against human MCF-10A cells assessed as inhibition of cell growth measured by MTS method; assay type: functional, cell-based
[5] = Effect of Wnt/beta-Catenin signaling pathway in human SW480 cells assessed as reduction in BCL9L level at 20 uM incubated for 24 hrs by qRT-PCR analysis relative to control; assay type: functional; settings: SW480, 24 h
CYP3A4 = CYP3A4 (Homo sapiens, UniProt P08684); test: Inhibition of CYP3A4 in human liver microsomes using Midazolam as substrate at 10 uM in presence of NADPH incubated for 10 mins; assay type: ADME, Microsome; settings: probe midazolam
Chain of CYP3A4 (P08684 whole entry): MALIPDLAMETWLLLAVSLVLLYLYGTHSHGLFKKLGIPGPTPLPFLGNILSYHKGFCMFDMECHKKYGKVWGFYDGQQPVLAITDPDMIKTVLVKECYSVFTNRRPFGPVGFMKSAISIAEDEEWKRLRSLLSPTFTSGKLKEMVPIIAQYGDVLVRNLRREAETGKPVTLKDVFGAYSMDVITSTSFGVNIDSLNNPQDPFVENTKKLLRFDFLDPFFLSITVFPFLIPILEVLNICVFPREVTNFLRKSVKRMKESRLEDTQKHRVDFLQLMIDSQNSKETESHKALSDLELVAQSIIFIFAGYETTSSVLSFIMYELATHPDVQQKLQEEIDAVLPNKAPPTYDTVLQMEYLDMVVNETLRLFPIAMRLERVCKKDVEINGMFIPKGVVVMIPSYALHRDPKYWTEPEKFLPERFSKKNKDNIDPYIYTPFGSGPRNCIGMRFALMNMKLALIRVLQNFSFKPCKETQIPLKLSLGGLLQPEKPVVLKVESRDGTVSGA

SW480 [6] = test: Inhibition of Wnt/beta-catenin transactivation signalling in human SW480 cells transfected with beta-catenin plasmid at 10 uM by TOPFlash luciferase assay; assay type: cell-based
[7] = Effect of Wnt/beta-Catenin signaling pathway in human SW480 cells assessed as reduction in Axin2 level at 5 uM incubated for 24 hrs by qRT-PCR analysis relative to control; assay type: functional; settings: SW480, 24 h
CYP1A2 = target: T1, CYP1A2 (Homo sapiens, UniProt P05177); test: Inhibition of CYP1A2 in human liver microsomes using phenacetin at 10 uM in presence of NADPH incubated for 10 mins; assay type: ADME, Microsome; settings: probe phenacetin
T1 sequence (P05177 whole entry): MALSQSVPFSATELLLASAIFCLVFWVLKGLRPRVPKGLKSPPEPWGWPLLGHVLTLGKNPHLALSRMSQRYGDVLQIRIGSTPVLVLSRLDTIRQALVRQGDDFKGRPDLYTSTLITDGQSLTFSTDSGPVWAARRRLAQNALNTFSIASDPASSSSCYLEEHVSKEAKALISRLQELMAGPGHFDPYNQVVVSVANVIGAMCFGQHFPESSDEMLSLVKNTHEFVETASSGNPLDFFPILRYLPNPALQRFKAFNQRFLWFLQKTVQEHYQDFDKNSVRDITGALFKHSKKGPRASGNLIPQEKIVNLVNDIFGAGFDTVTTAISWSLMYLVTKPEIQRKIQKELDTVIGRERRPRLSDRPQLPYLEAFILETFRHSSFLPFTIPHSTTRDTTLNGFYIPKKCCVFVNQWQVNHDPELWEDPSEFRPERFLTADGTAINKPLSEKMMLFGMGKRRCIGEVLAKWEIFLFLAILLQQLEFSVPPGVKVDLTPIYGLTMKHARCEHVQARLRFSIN

[8] = Effect of Wnt/beta-Catenin signaling pathway in human SW480 cells assessed as reduction in Cyclin D1 level at 20 uM incubated for 24 hrs by qRT-PCR analysis relative to control; assay type: functional; settings: SW480, 24 h
CYP2C9 = CYP2C9 (Homo sapiens, UniProt P11712); test: Inhibition of CYP2C9 in human liver microsomes using tolbutamide as substrate at 10 uM in presence of NADPH incubated for 10 mins; assay type: ADME, Microsome; settings: probe tolbutamide
Chain of CYP2C9 (P11712 whole entry): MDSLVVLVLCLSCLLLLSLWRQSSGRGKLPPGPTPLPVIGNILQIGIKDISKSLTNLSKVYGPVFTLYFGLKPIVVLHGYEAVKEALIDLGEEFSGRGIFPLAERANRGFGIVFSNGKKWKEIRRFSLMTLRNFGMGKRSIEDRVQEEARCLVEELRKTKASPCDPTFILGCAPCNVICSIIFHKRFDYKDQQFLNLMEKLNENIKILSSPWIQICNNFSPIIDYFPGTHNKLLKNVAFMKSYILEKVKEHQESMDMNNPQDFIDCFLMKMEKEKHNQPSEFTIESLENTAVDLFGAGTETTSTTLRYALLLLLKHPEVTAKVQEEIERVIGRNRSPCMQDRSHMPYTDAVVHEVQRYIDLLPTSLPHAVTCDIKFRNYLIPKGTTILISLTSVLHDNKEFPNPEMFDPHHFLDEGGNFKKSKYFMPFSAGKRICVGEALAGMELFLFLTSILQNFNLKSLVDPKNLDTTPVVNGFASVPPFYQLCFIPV

SW480 [9] = test: Antiproliferative activity against human SW480 cells assessed as inhibition of cell growth measured by MTS method; assay type: functional, cell-based
SW480 [10] = test: Effect of Wnt/beta-Catenin signaling pathway in human SW480 cells assessed as decrease in Axin2 level at 20 uM incubated for 24 hrs by Western blot analysis; assay type: functional, cell-based; settings: DDE = dose-dependent effect
[11] = target: beta-catenin-B-cell lymphoma 9 protein complex (Homo sapiens) (UniProt P35222+O00512); test: Disruption of beta-catenin/N-terminal biotinylated human BCL9 HD2 (350 to 375 residues) protein-protein interaction in human SW480 cells incubated for 1 hr followed by N-terminal biotinylated human BCL9 HD2 addition and measured after 2 hrs by immunoblot based pull-down assay; assay type: cell-based; settings: time 3.0 hrs, DDE = dose-dependent effect
[12] = Effect of Wnt/beta-Catenin signaling pathway in human SW480 cells assessed as reduction in BCL9L level at 5 uM incubated for 24 hrs by qRT-PCR analysis relative to control; assay type: functional; settings: SW480, 24 h

**Q.** With `CC(C)(Oc1cccc(N2CCC[C@@H](C(=O)N(Cc3ccc(-c4cnc5[nH]ccc5c4)cc3)C3CC3)C2)c1)C(=O)N1CCNCC1.Cl` as the compound, how does the inhibition (MDA-MB-468) read?
**A.** Active

**Q.** And the inhibition (SW480 [1])?
**A.** Dde

**Q.** What about the level, % of control at 5 µM [2] of the same compound?
**A.** 99%

**Q.** What about the level, % of control at 20 µM [3] of the same compound?
**A.** 19%

**Q.** And the level, % of control at 10 µM [4]?
**A.** 56%

**Q.** What about the IC50 (MCF-10A) of the same compound?
**A.** 36 µM

**Q.** And the level, % of control at 20 µM [5]?
**A.** 32%

**Q.** And the inhibition at 10 min, 10 µM (CYP3A4)?
**A.** 97%

**Q.** And the inhibition (SW480 [6])?
**A.** Active

**Q.** What about the level, % of control at 5 µM [7] of the same compound?
**A.** 72%

**Q.** And the inhibition at 10 min, 10 µM (CYP1A2)?
**A.** 31%

**Q.** And the level, % of control at 20 µM [8]?
**A.** 29%

**Q.** And the inhibition at 10 min, 10 µM (CYP2C9)?
**A.** 91%

**Q.** And the IC50 (SW480 [9])?
**A.** 14 µM

**Q.** And the inhibition (SW480 [10])?
**A.** Dde

**Q.** What about the inhibition [11] of the same compound?
**A.** Dde

**Q.** What about the level, % of control at 5 µM [12] of the same compound?
**A.** 77%
